From patent US20060069083A1, “Pesticidal dibenzo(hetero)azepine derivatives” (priority 2002, published 2006)

Assays:
[1] = test system: Yellowfever mosquitos (aedes aegypti); experiment: Yellowfever mosquito water treatment test, 4th instar; format: in vivo; conditions: 50 ppm; after 6 days
Protocol: Yellowfever mosquitos (aedes aegypti)
The test compound (1 Vol % in acetone) was applied to water in glass dishes containing 4th instar aedes aegypti. The test dishes were maintained at about 25° C. and observed daily for mortality. Each test weas replicated in 3 test dishes.

[2] = test system: Meloidogyne incognita J2 larvae; experiment: Root-knot nematode solution assay; format: in vivo; conditions: 100 ppm; read after 72 hours; immobility regarded as mortality
Protocol: Test Procedures for Root-Knot Nematode Solution Assay (Meloidogyne incognita):
To microtiter plates containing about 1.0 mg of compound, 80:20 acetone was added to each well and the solution was mixed to obtain the desired compound concentration. The aqueous nematode suspension containing 20 to 50 Meloidogyne incognita J2 larvae per […] was added to each plate. The plates were then sealed and they were placed in an incubator at 27° C. and about 50% relative humidity. After 72 hours, the population mortality was read, whereby immobility of nematodes was regarded as mortality.

Row | Compound | mortality compared to untreated controls [1] | mortality compared to untreated controls [2] [%]
1 | Clc1ccc2c(c1)Oc1ccc(Cl)cc1C(N1CCNCC1)=N2 [I-B.23] | over 90% | –
2 | FC(F)(F)c1ccc2c(c1)C(N1CCN(c3ccccc3)CC1)=Nc1ccccc1S2 [I-A.51] | – | 100
